Biological target: T1, olfactory receptor OR5K1 (Homo sapiens, UniProt Q8NHB7)
T1 construct: expressed in transfected cells; host or cells: HEK293
T1 sequence (Q8NHB7 1-308): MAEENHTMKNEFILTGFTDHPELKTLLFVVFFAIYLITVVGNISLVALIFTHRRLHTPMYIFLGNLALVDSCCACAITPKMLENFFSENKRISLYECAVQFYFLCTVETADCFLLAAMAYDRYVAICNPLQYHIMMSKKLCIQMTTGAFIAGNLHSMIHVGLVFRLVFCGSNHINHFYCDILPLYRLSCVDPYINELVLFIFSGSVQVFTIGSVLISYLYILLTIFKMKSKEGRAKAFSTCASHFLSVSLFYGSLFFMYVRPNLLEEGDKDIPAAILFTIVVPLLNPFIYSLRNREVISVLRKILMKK
Test: Luciferase reporter gene assay: response of olfactory receptor to pyrazine derivatives
Type: cell-based
Details: for response of OR5K1, dependency on concentration: 0, 3, 10, 30, 100, 300 and 1000 μM, HEK293 cells expressing OR5K1 with RTP1S variant, FIG. 2
Method: HEK293 cells expressing 373 types of human olfactory receptors were produced. A reaction solution having a composition shown in Table 1 was prepared and left to stand in a clean bench for 15 min and then was dispensed in each well of a 96-well plate (Becton, Dickinson and Company). Subsequently, HEK293 cells (100 μL, 3×10^5 cells/cm^2) were seeded in each well and cultured in an incubator at 37° C. and 5% CO2 for 24 hr.
An olfactory receptor expressed in HEK293 cells couples with endogenous Gas in the cells to activate adenylate cyclase and thereby increases the amount of intracellular cAMP. In this study, the response of a pyrazine derivative was measured by luciferase reporter gene assay which monitors an increase in the amount of intracellular cAMP as the luminescence value derived from a firefly luciferase gene (fluc2P-CRE-hygro). A Renilla luciferase gene was fused downstream of a CMV promoter (hRluc-CMV) and was also introduced to HEK293 cells as an internal standard to correct errors in transgenic efficiency and number of cells.
The culture medium was removed from the culture produced in the above 3), and 75 μL of a solution prepared with a CD293 medium (Invitrogen Inc.) so as to contain a pyrazine derivative (1 mM 2,6-dimethylpyrazine) was added thereto. The cells were cultured in a CO2 incubator for 2.5 hr to sufficiently express the luciferase gene in the cells. The luciferase activity was measured with a Dual-Glo™ luciferase assay system (Promega Corporation) in accordance with the operating manual of the system. The fold increases were calculated by dividing the luminescence value derived from firefly luciferase induced by stimulation with a pyrazine derivative at each concentration by the luminescence value in cells not stimulated with the pyrazine derivative and were used as an index of response strength.
Olfactory receptor OR5K1 (SEQ ID NO: 2) was expressed in HEK293 cells together with an RTP1S variant (SEQ ID NO: 4) by the same procedure as in Example 1, and the dependency of the response on the concentration (0, 3, 10, 30, 100, 300, and 1000 μM) of various pyrazine compounds was investigated. The pyrazine compounds used in this Example were pyrazine and pyrazine derivatives selected from the group consisting of 2-methylpyrazine, 2,3-dimethylpyrazine, 2,5-dimethylpyrazine, 2,3,5-trimethylpyrazine, 2,3,5,6-tetramethylpyrazine and 2-ethylpyrazine.

Compound	response of OR5K1, dependency on concentration	response of the 373 types of olfactory receptors to the pyrazine derivative (1 mM, HEK293 cells expressing human olfactory receptors, FIG. 1)
Cc1cncc(C)n1 [2,6-dimethylpyrazine]	responded in a dose-dependent manner	only olfactory receptor OR5K1 responded
CCc1cnccn1 [2-ethylpyrazine]	responded in a dose-dependent manner	–
Cc1cnccn1 [2-methylpyrazine]	responded in a dose-dependent manner	–
c1cnccn1 [pyrazine]	did not respond	–

Source: patent US9057090B2, “Method of identifying an agent for inhibiting odor of pyrazine derivatives” (Kao Corporation, priority 2012, dated 2015)
